Assay results published in patent US10166225B2, “Method for treating osteoporosis” (Exelixis, Inc., priority 2011, dated 2019).

Tested on: rat ovariectomy (OVX) model
Assay: Short-term effects on body weight, uterine weight and bone turnover markers in the rat ovariectomy (OVX) model
Assay type: in vivo, rat (Sprague-Dawley)
Design: key to Body weight, change during the first week / Body weight, change during the in-life phase / Relative uterine weight at day 14 / Serum PINP levels, change during the in-life phase / Serum OC levels, change during the in-life phase / Serum CTX levels, change during the in-life phase / Serum TRACP 5b activity, change during the in-life phase: An upwards arrow (↑) indicates a statistically significant increase; a downwards arrow (↓) a statistically significant decrease; One asterisk (*) indicates a statistical significance with a p-value<0.05; two asterisks (**) with a p-value<0.01; three asterisks (***) with a p-value<0.001; NS=Non-significant
Conditions: for Body weight, change during the first week / Body weight, change during the in-life phase / Relative uterine weight at day 14 / Serum CTX levels, change during the in-life phase / Serum OC levels, change during the in-life phase / Serum PINP levels, change during the in-life phase / Serum TRACP 5b activity, change during the in-life phase: OVX rats vs OVX vehicle
Description: The objective of this study was to investigate short-term effects of Compound 1 on biochemical serum markers of bone metabolism in a prevention study in a rat ovariectomy (OVX) model for postmenopausal osteoporosis. 17β-estradiol (E2) was used as a reference compound. The following five experimental groups were included in the study:
Each group contained eight female rats (Sprague-Dawley) that were three months of age at the beginning of in-life phase of the study. Before the start of the in-life phase, animals were weighed, their blood samples were harvested, and animals were randomized to study groups by stratification according to body weight and serum levels of procollagen type I N-terminal propeptide (PINP). At the beginning of the in-life phase, animals were weighed and operated. Treatment was started one day after the operations and continued once a day for two weeks. Sterile water was used as vehicle in groups 1 and 2. Body weight was determined after one week of treatment and treatment doses were adjusted accordingly. After two weeks of treatment, animals were weighed, their blood samples were harvested, animals were terminated, and their relative uterine weight was determined. For analyzing short-term effects of treatments, levels of four bone metabolism biomarkers were determined in serum samples harvested before the start and at the end of the in-life phase. These biomarkers included PINP as a marker of bone formation, N-terminal mid-fragment of osteocalcin (OC) as a general marker of bone turnover, C terminal cross-linked telopeptides of type I collagen (CTX) as a marker of bone resorption, and tartrate-resistant acid phosphatase isoform 5b (TRACP 5b) as a marker of osteoclast number. Serum levels at day −7 were used as baseline levels and serum levels at day 14 as levels affected by operations and treatments.
Each group contained eight female rats (Sprague-Dawley) that were three months of age at the beginning of in-life phase of the study. Animals were randomized to study groups by stratification according to their body weight and serum levels of procollagen type I N-terminal propeptide (PINP) measured one week before the start of the in-life phase (at day −7). At the beginning of the in-life phase (at day 0), animals were weighed, animals in groups 2-5 were ovariectomized, and animals in group 1 SHAM-operated. Treatment was started one day after the operations and continued once a day for two weeks (up to day 13). Sterile water was used as vehicle in groups 1 and 2. Body weight was determined at the beginning of the in-life phase (at day 0), one week after the start of the inlife phase (at day 7), and at the end of the in-life phase (at day 14). Treatment doses were adjusted according to the latest body weight obtained. After two weeks of treatment (at day 14), animals were weighed, their blood samples were harvested, animals were terminated, and their relative uterine weight was determined. For analyzing short-term effects of treatments, levels of four bone metabolism biomarkers were measured in serum samples harvested before the start of the in-life phase (at day −7) and at the end of the in-life phase (at day 14). These biochemical serum markers included PINP, N-terminal mid-fragment of osteocalcin (OC), C-terminal cross-linked telopeptides of type I collagen (CTX), and tartrate-resistant acid phosphatase isoform 5b (TRACP 5b). Serum levels obtained at day −7 were used as baseline levels and serum levels obtained at day 14 as levels affected by surgical operations and treatments.
Biochemical markers of bone metabolism are useful tools for monitoring osteoporosis therapy and for prediction of fracture risk and long-term changes in bone mineral density (Cremers et al. 2008). […]

[1] = OVX rats, Compound 1 oral dose of 3 mg/kg/d, two weeks
[2] = OVX rats, Compound 1 oral doses of 1 and 3 mg/kg/d, two weeks

For COc1cc2nccc(Oc3ccc(NC(=O)C4(C(=O)Nc5ccc(F)cc5)CC4)cc3)c2cc1OC [Compound 1, N-(4-{[6,7-bis(methyloxy)quinolin-4-yl]oxy}phenyl)-N′-(4-fluorophenyl)cyclopropane-1,1-dicarboxamide], the “Body weight, change during the first week” value (cabozantinib 1 mg/kg/d p.o.) was “↓ *”, the “Body weight, change during the in-life phase” value (cabozantinib 1 mg/kg/d p.o.) was “↓ *” and the “Relative uterine weight at day 14” value (cabozantinib 1 mg/kg/d p.o.) was “NS”. For the same compound, the “Serum CTX levels, change during the in-life phase” value (cabozantinib 1 mg/kg/d p.o.) was “NS”, the “Serum OC levels, change during the in-life phase” value (cabozantinib 1 mg/kg/d p.o.) was “NS” and the “Serum PINP levels, change during the in-life phase” value (cabozantinib 1 mg/kg/d p.o.) was “NS”. The “Serum TRACP 5b activity, change during the in-life phase” value (cabozantinib 1 mg/kg/d p.o.) was “NS”, the “Body weight, change during the first week” value (cabozantinib 3 mg/kg/d p.o.) was “NS” and the “Body weight, change during the in-life phase” value (cabozantinib 3 mg/kg/d p.o.) was “NS”. For the same compound, the “Relative uterine weight at day 14” value (cabozantinib 3 mg/kg/d p.o.) was “NS”, the “Serum CTX levels, change during the in-life phase” value (cabozantinib 3 mg/kg/d p.o.) was “NS” and the “Serum OC levels, change during the in-life phase” value (cabozantinib 3 mg/kg/d p.o.) was “NS”. The “Serum PINP levels, change during the in-life phase” value (cabozantinib 3 mg/kg/d p.o.) was “↑ *”, the “Serum TRACP 5b activity, change during the in-life phase” value (cabozantinib 3 mg/kg/d p.o.) was “↓ *” and the “OVX-induced gain in body weight” value (OVX rats, Compound 1 oral dose of 1 mg/kg/d, two weeks) was “partially prevented”. For the same compound, the “OVX-induced increase in serum PINP levels” value [1] was “enhanced”, the “OVX-induced reduction in serum TRACP 5b activity” value [1] was “enhanced” and the “OVX-induced increase in serum CTX levels” value [2] was “did not affect”. The “OVX-induced increase in serum OC levels” value [2] was “did not affect” and the “OVX-induced reduction in relative uterine weight” value [2] was “did not affect”.
